Assay results published in patent US8877949B2, “Furo[3,2-g]chromene compounds and uses thereof” (Shenyang Pharmaceutical University, priority 2010, dated 2014).

Assays:
[1] = tested on: Osteosarcoma Cells U2OS-EGFP-4A12G; test: Effect on the proliferation of osteosarcoma cells U2OS-EGFP-4A12G (MTT); type: cell-based; settings: n = 3
Method: Cells in the logarithmic growth phase were digested with trypsin, counted with trypan blue, and prepared into a cellular suspension with a density of 1×10^4 cells/mL. The suspension was seeded in a 96-well plate, 200 μL/well, about 2×10^3 cells/well, and pre-cultured for 24 h. […] A concentration of 0 mg/mL was used as a negative control group. After subsequent cultivatation for 0 h, 12 h, 24 h or 48 h, 20 μL MTT solution (5 mg/mL) was added to each well. The cultivation was terminated after another 4 h incubation. The supernatant in each well was sucked out carefully, and 150 μL of dimethyl sulfoxide (DMSO) was added to each well. The plate was shaken for 10 min, so that formazan was dissolved thoroughly. The absorption value (A value) of each well was measured using an enzyme linked immunosorbent detector, at a selected wavelength of 490 nm. The measurement was repeated for 5 times.

[2] = tested on: Ovarian Cancer Cells SKOV3; test: Effect on the proliferation of ovarian cancer cells SKOV3 (MTT); type: cell-based
Method: Cells in the logarithmic growth phase were digested with trypsin, added to a 96-well plate, in a density of 6×10^3 cells/well, and cultured in a 37° C., 5% CO2 incubator. The next day, the plated was transferred to and kept in a 4° C. incubator for 1 h after the adherence of most cells, so as to achieve synchronized growth of the cells. The supernatant was sucked out, and a RPMI 1640 medium containing 10% fetal calf serum (FCS) was added, 200 μL/well. The cells were grouped according to the design of the experiment. The injectable solution of the compound prepared with sterile physiological saline was added to the 96 wells, 200 μL/well, so that the concentrate of the medicament in each well were 1 mg/mL, 2 mg/mL and 5 mg/mL, respectively. A concentration of 0 mg/mL was used as a negative control group. After subsequent cultivation for 24, 48, or 72 h, 20 μL MTT solution (with a concentration of 5 mg/mL) was added to each well, respectively. The plate was shaken gently, returned to the incubator and incubated for another 4 h. Then the supernatant was sucked out completely, and 200 μL of dimethyl sulfoxide was added to each well. The plate was shaken for 5-10 min on a shaker. The absorption (A=580) of each well at a wavelength of 580 nm was measured using a microplate reader. The A=580 value was proportional to the number of live cells.

| SMILES | melting point | IC50 [1] | IC50 ([2]; Homo sapiens, SK-OV-3, n = 3) | IC50 ([2]; n = 3) |
| --- | --- | --- | --- | --- |
| COc1ccc(-c2c(C(=O)c3ccccc3)oc3cc4c(cc23)CCCO4)cc1 [Example 1, 2-benzoyl-3-(4-methoxyphenyl)-6,7-dihydrogen-5H-furo[3,2-g]chromene] | 106.3 to 108.5 °C | – | – | – |
| COc1ccc(C(=O)c2oc3cc4c(cc3c2-c2ccccc2)CCCO4)cc1 [Example 2, 2-(4-methoxybenzoyl)-3-phenyl-6,7-dihydrogen-5H-furo[3,2-g]chromene] | 130.3 to 132.5 °C | – | – | – |
| COc1ccc(-c2c(C(=O)c3ccc(Cl)cc3)oc3cc4c(cc23)CCCO4)cc1 [Example 3, 2-(4-chlorobenzoyl)-3-(4-methoxyphenyl)-6,7-dihydrogen-5H-furo[3,2-g]chromene] | – | 21.7 µM | – | – |
| O=C(c1ccccc1)c1oc2cc3c(cc2c1-c1ccc(O)cc1)CCCO3 [Example 7, 2-benzoyl-3-(4-hydroxyphenyl)-6,7-dihydrogen-5H-furo[3,2-g]chromene] | – | 13.7 µM | 0.8 µM | – |
| CCN(CC)CCOc1ccc(-c2c(C(=O)c3ccccc3)oc3cc4c(cc23)CCCO4)cc1 [Example 21, 2-benzoyl-3-[4-(diethylaminoethoxy)phenyl]-6,7-dihydrogen-5H-furo[3,2-g]chromene] | – | 16.5 µM | – | 28.2 µM |
| O=C(c1ccc(Cl)cc1)c1oc2cc3c(cc2c1-c1ccc(OCCN2CCCCC2)cc1)CCCO3 [Example 30, 2-(4-chlorobenzoyl)-3-[4-(piperidinoethoxy)phenyl]-6,7-dihydrogen-5H-furo[3,2-g]chromene] | – | 26.3 µM | – | 72.2 µM |
| CCN(CC)CCOc1ccc(-c2c(C(=O)c3ccc(Cl)cc3)oc3cc4c(cc23)CCCO4)cc1 [Example 31, 2-(4-chlorobenzoyl)-3-[4-(diethylaminoethoxy)phenyl]-6,7-dihydrogen-5H-furo[3,2-g]chromene] | – | 36.1 µM | 8.5 µM | – |
| CCN(CC)CCOc1ccc(-c2c(C(=O)c3ccc(C)cc3)oc3cc4c(cc23)CCCO4)cc1 [Example 35, 2-(4-methylbenzoyl)-3-[4-(diethylaminoethoxy)phenyl]-6,7-dihydrogen-5H-furo[3,2-g]chromene] | – | 5.8 µM | 29.7 µM | – |
| Cc1ccc(C(=O)c2oc3cc4c(cc3c2-c2ccc(OCCN(C)C)cc2)CCCO4)cc1 [Example 36, 2-(4-methylbenzoyl)-3-[4-(dimethylaminoethoxy)phenyl]-6,7-dihydrogen-5H-furo[3,2-g]chromene] | – | 7.7 µM | 10.3 µM | – |
| O=C(c1ccc(Br)cc1)c1oc2cc3c(cc2c1-c1ccc(OCCN2CCOCC2)cc1)CCCO3 [Example 41, 2-(4-bromobenzoyl)-3-[4-(morpholinoethoxy)phenyl]-6,7-dihydrogen-5H-furo[3,2-g]chromene] | – | 5 µM | 42.5 µM | – |
| O=C(c1ccc(Br)cc1)c1oc2cc3c(cc2c1-c1ccc(OCCN2CCCCC2)cc1)CCCO3 [Example 42, 2-(4-bromobenzoyl)-3-[4-(piperidinoethoxy)phenyl]-6,7-dihydrogen-5H-furo[3,2-g]chromene] | – | 13.3 µM | 32.8 µM | – |
| CN(C)CCOc1ccc(-c2c(C(=O)c3ccc(Br)cc3)oc3cc4c(cc23)CCCO4)cc1 [Example 44, 2-(4-bromobenzoyl)-3-[4-(dimethylaminoethoxy)phenyl]-6,7-dihydrogen-5H-furo[3,2-g]chromene] | – | 15.6 µM | 19 µM | – |
| COc1ccc(-c2c(C(=O)c3ccc(OCCN4CCCCC4)cc3)oc3cc4c(cc23)CCCO4)cc1 [Example 48, 2-[4-(piperidinoethoxy)benzoyl]-3-(4-methoxyphenyl)-6,7-dihydrogen-5H-furo[3,2-g]chromene] | – | 5.1 µM | 14.5 µM | – |
| CCN(CC)CCOc1ccc(C(=O)c2oc3cc4c(cc3c2-c2ccc(OC)cc2)CCCO4)cc1 [Example 50, 2-[4-(diethylaminoethoxy)benzoyl]-3-(4-methoxyphenyl)-6,7-dihydrogen-5H-furo[3,2-g]chromene] | – | 5.5 µM | 14.5 µM | – |
| O=C(c1ccc(OCCN2CCCCC2)cc1)c1oc2cc3c(cc2c1-c1ccc(O)cc1)CCCO3 [Example 55, 2-[4-(piperidinoethoxy)benzoyl]-3-(4-hydroxyphenyl)-6,7-dihydrogen-5H-furo[3,2-g]chromene] | – | 10.8 µM | – | 13.6 µM |
